Data as given in patent publication US20120255051A1, “HERBICIDE TOLERANT PLANTS” (priority 2009, published 2012).

Test system: Brassica plants comprising mutant AHAS alleles
Experiment: Field trial, pre-planting treatment (0, 10, 20, 30 g a.i./ha), two locations in Canada: ERG, EST1, EST2, PPTOX, VIG1, VIG2, VIG3 scores
Type: in vivo, Brassica napus
Conditions: ratio >1 = positive contribution
Description: Tests were set up and conducted to asses the growth and performance of plants comprising AHAS full knock-out alleles, and to further analyze the correlation between the presence of full knockout and missense AHAS genes in Brassica plants and plant growth and herbicide tolerance of the Brassica plants in the field. To this end, the Brassica plants identified in Example 1 and 2 were backcrossed two times with an elite parent line, and subsequently selfed twice to obtain homozygous plants (BC2S2). Plants were grown as row plots in a split plot design with three replicates (main plots=herbicide treatments, subplots=genotypes) at two locations in Canada. Treatment pre-planting was carried out on the soil about two days before sowing with a dose of 0 (treatment A), 10 (treatment B), 20 (treatment C) or 30 (treatment D) g a.i./ha of thiencarbazone methyl. Herbicide tolerance was measured by scoring for different parameters. The parameter emergence (ERG) was scored at the cotyledon stage on a scale 1-9, where 1 means late emergence and 9 means early emergence. Establishment was scored 14 days after sowing (EST1) and 21 days after sowing (EST2). Scores were from 1 to 9, where 1 is the worst establishment (least plants that emerged), and 9 is the best establishment (most plants emerged). Phytotoxicity (PPTOX) was determined after establishment. Plants were evaluated on a scale of 1 to 9, where 1=completely yellowing, 5=50% of plant is yellow and 9=no yellowing. The vigor scores (see above) were determined at 1-2 leaf stage (VIG1), 7 days after VIG1 (VIG2) and 14 days after VIG1 (VIG3). The average values (Av) and standard deviations (SD) of the scores for the different parameters are represented in Table 7a-g.
Further, the contribution of the knock-out allele to herbicide tolerance conferred by the missense allele was calculated. First, the scores were corrected for a possible effect of the growth per se, independent of herbicide treatment. To this end, the scores for treatments B, C and D were divided by the scores for treatment A for the same genotype and for the same parameter (corrected herbicide tolerance scores). Next, the effect of the knock-out allele to these corrected herbicide tolerance scores obtained by the missense allele was calculated. Therefore, the corrected herbicide tolerance scores for the missense—knock-out allele combination was divided by the corrected herbicide tolerance scores for the missense allele—wild-type combination. In case the knock-out allele has no effect on herbicide tolerance conferred by the missense allele, this ratio should be 1. In case the knock-out allele positively contributes to the herbicide tolerance conferred by the missense allele, this ratio should be higher than 1. The results for the contribution of the knock-out allele to herbicide tolerance conferred by the missense allele as calculated above are shown in table 8.

[1] = Location A, treatment B 10 g a.i./ha pre-planting
[2] = Location A, treatment C 20 g a.i./ha pre-planting
[3] = Location A, treatment D 30 g a.i./ha pre-planting
[4] = Location B, treatment B 10 g a.i./ha pre-planting
[5] = Location B, treatment C 20 g a.i./ha pre-planting
[6] = Location B, treatment D 30 g a.i./ha pre-planting

## COC(=O)c1csc(C)c1S(=O)(=O)NC(=O)n1nc(OC)n(C)c1=O [thiencarbazone-methyl, methyl 4-[(4,5-dihydro-3-methoxy-4-methyl-5-oxo-1H-1,2,4-triazol-1-yl)carbonylsulfamoyl]-5-methylthiophene-3-carboxylate]
[1]
  relative contribution of HETO112 (AHAS1 KO) to herbicide tolerance conferred by HETO111 (AHAS3 missense): VIG2: 1.05
  relative contribution of HETO112 (AHAS1 KO) to herbicide tolerance conferred by HETO111 (AHAS3 missense): VIG3: 1.14
[2]
  relative contribution of HETO104 (AHAS3 KO) to herbicide tolerance conferred by HETO108 (AHAS1 missense): ERG: 0.77
  relative contribution of HETO104 (AHAS3 KO) to herbicide tolerance conferred by HETO108 (AHAS1 missense): EST1: 0.77
  relative contribution of HETO104 (AHAS3 KO) to herbicide tolerance conferred by HETO108 (AHAS1 missense): EST2: 0.87
  relative contribution of HETO104 (AHAS3 KO) to herbicide tolerance conferred by HETO108 (AHAS1 missense): PPTOX: 1.03
  relative contribution of HETO104 (AHAS3 KO) to herbicide tolerance conferred by HETO108 (AHAS1 missense): VIG1: 0.88
  relative contribution of HETO104 (AHAS3 KO) to herbicide tolerance conferred by HETO108 (AHAS1 missense): VIG2: 0.90
  relative contribution of HETO104 (AHAS3 KO) to herbicide tolerance conferred by HETO108 (AHAS1 missense): VIG3: 0.91
  relative contribution of HETO112 (AHAS1 KO) to herbicide tolerance conferred by HETO111 (AHAS3 missense): ERG: 1.20
  relative contribution of HETO112 (AHAS1 KO) to herbicide tolerance conferred by HETO111 (AHAS3 missense): EST1: 1.19
  relative contribution of HETO112 (AHAS1 KO) to herbicide tolerance conferred by HETO111 (AHAS3 missense): EST2: 1.19
  relative contribution of HETO112 (AHAS1 KO) to herbicide tolerance conferred by HETO111 (AHAS3 missense): PPTOX: 1.13
  relative contribution of HETO112 (AHAS1 KO) to herbicide tolerance conferred by HETO111 (AHAS3 missense): VIG1: 1.11
  relative contribution of HETO112 (AHAS1 KO) to herbicide tolerance conferred by HETO111 (AHAS3 missense): VIG2: 1.00
  relative contribution of HETO112 (AHAS1 KO) to herbicide tolerance conferred by HETO111 (AHAS3 missense): VIG3: 1.05
[3]
  relative contribution of HETO104 (AHAS3 KO) to herbicide tolerance conferred by HETO108 (AHAS1 missense): ERG: 1.03
  relative contribution of HETO104 (AHAS3 KO) to herbicide tolerance conferred by HETO108 (AHAS1 missense): EST1: 1.03
  relative contribution of HETO104 (AHAS3 KO) to herbicide tolerance conferred by HETO108 (AHAS1 missense): EST2: 0.94
  relative contribution of HETO104 (AHAS3 KO) to herbicide tolerance conferred by HETO108 (AHAS1 missense): PPTOX: 0.90
  relative contribution of HETO104 (AHAS3 KO) to herbicide tolerance conferred by HETO108 (AHAS1 missense): VIG1: 0.94
  relative contribution of HETO104 (AHAS3 KO) to herbicide tolerance conferred by HETO108 (AHAS1 missense): VIG2: 0.89
  relative contribution of HETO104 (AHAS3 KO) to herbicide tolerance conferred by HETO108 (AHAS1 missense): VIG3: 0.95
  relative contribution of HETO112 (AHAS1 KO) to herbicide tolerance conferred by HETO111 (AHAS3 missense): ERG: 1.28
  relative contribution of HETO112 (AHAS1 KO) to herbicide tolerance conferred by HETO111 (AHAS3 missense): EST1: 1.36
  relative contribution of HETO112 (AHAS1 KO) to herbicide tolerance conferred by HETO111 (AHAS3 missense): EST2: 1.18
  relative contribution of HETO112 (AHAS1 KO) to herbicide tolerance conferred by HETO111 (AHAS3 missense): PPTOX: 1.23
  relative contribution of HETO112 (AHAS1 KO) to herbicide tolerance conferred by HETO111 (AHAS3 missense): VIG1: 1.18
  relative contribution of HETO112 (AHAS1 KO) to herbicide tolerance conferred by HETO111 (AHAS3 missense): VIG2: 1.25
  relative contribution of HETO112 (AHAS1 KO) to herbicide tolerance conferred by HETO111 (AHAS3 missense): VIG3: 1.21
[4]
  relative contribution of HETO104 (AHAS3 KO) to herbicide tolerance conferred by HETO108 (AHAS1 missense): ERG: 0.92
  relative contribution of HETO104 (AHAS3 KO) to herbicide tolerance conferred by HETO108 (AHAS1 missense): EST1: 1.07
  relative contribution of HETO104 (AHAS3 KO) to herbicide tolerance conferred by HETO108 (AHAS1 missense): EST2: 0.95
  relative contribution of HETO104 (AHAS3 KO) to herbicide tolerance conferred by HETO108 (AHAS1 missense): PPTOX: 0.78
  relative contribution of HETO104 (AHAS3 KO) to herbicide tolerance conferred by HETO108 (AHAS1 missense): VIG1: 0.95
  relative contribution of HETO104 (AHAS3 KO) to herbicide tolerance conferred by HETO108 (AHAS1 missense): VIG2: 1.08
  relative contribution of HETO104 (AHAS3 KO) to herbicide tolerance conferred by HETO108 (AHAS1 missense): VIG3: 1.19
  relative contribution of HETO112 (AHAS1 KO) to herbicide tolerance conferred by HETO111 (AHAS3 missense): ERG: 0.99
  relative contribution of HETO112 (AHAS1 KO) to herbicide tolerance conferred by HETO111 (AHAS3 missense): EST1: 1.00
  relative contribution of HETO112 (AHAS1 KO) to herbicide tolerance conferred by HETO111 (AHAS3 missense): EST2: 1.06
  relative contribution of HETO112 (AHAS1 KO) to herbicide tolerance conferred by HETO111 (AHAS3 missense): PPTOX: 0.84
  relative contribution of HETO112 (AHAS1 KO) to herbicide tolerance conferred by HETO111 (AHAS3 missense): VIG1: 0.89
  relative contribution of HETO112 (AHAS1 KO) to herbicide tolerance conferred by HETO111 (AHAS3 missense): VIG2: 0.95
  relative contribution of HETO112 (AHAS1 KO) to herbicide tolerance conferred by HETO111 (AHAS3 missense): VIG3: 1.04
[5]
  relative contribution of HETO104 (AHAS3 KO) to herbicide tolerance conferred by HETO108 (AHAS1 missense): ERG: 1.15
  relative contribution of HETO104 (AHAS3 KO) to herbicide tolerance conferred by HETO108 (AHAS1 missense): EST1: 1.07
  relative contribution of HETO104 (AHAS3 KO) to herbicide tolerance conferred by HETO108 (AHAS1 missense): EST2: 1.02
  relative contribution of HETO104 (AHAS3 KO) to herbicide tolerance conferred by HETO108 (AHAS1 missense): PPTOX: 1.28
  relative contribution of HETO104 (AHAS3 KO) to herbicide tolerance conferred by HETO108 (AHAS1 missense): VIG1: 1.22
  relative contribution of HETO104 (AHAS3 KO) to herbicide tolerance conferred by HETO108 (AHAS1 missense): VIG2: 1.15
  relative contribution of HETO104 (AHAS3 KO) to herbicide tolerance conferred by HETO108 (AHAS1 missense): VIG3: 1.25
  relative contribution of HETO112 (AHAS1 KO) to herbicide tolerance conferred by HETO111 (AHAS3 missense): ERG: 0.92
  relative contribution of HETO112 (AHAS1 KO) to herbicide tolerance conferred by HETO111 (AHAS3 missense): EST1: 1.13
  relative contribution of HETO112 (AHAS1 KO) to herbicide tolerance conferred by HETO111 (AHAS3 missense): EST2: 1.07
  relative contribution of HETO112 (AHAS1 KO) to herbicide tolerance conferred by HETO111 (AHAS3 missense): PPTOX: 0.88
  relative contribution of HETO112 (AHAS1 KO) to herbicide tolerance conferred by HETO111 (AHAS3 missense): VIG1: 0.93
  relative contribution of HETO112 (AHAS1 KO) to herbicide tolerance conferred by HETO111 (AHAS3 missense): VIG2: 0.94
  relative contribution of HETO112 (AHAS1 KO) to herbicide tolerance conferred by HETO111 (AHAS3 missense): VIG3: 0.98
[6]
  relative contribution of HETO104 (AHAS3 KO) to herbicide tolerance conferred by HETO108 (AHAS1 missense): ERG: 0.93
  relative contribution of HETO104 (AHAS3 KO) to herbicide tolerance conferred by HETO108 (AHAS1 missense): EST1: 1.00
